Assay results taken from patent US20240148821A1, “PHARMACEUTICAL USE OF CYCLIC PEPTIDE COMPOUND” (CHUGAI SEIYAKU KABUSHIKI KAISHA, priority 2021, published 2024).
Numbered stars: 1 amine (or outer) side, 2 acyl side, 3 side chain; on linkers, the order of the positions; unused ones are H or OH. Bridge positions count the residues as written; N and C are the ends. Square brackets hold non-standard residues; d marks the D form. Peptide text beside a SMILES is read from it. * marks the point of attachment. hPhe(3,5-F2-4-CF3) = N[C@@H](CCc1cc(F)c(C(F)(F)F)c(F)c1)C(=O)O; hPhe(3-Cl-4-CF3) = N[C@@H](CCc1ccc(C(F)(F)F)c(Cl)c1)C(=O)O; hPhe(3-F,4-CF3) = N[C@@H](CCc1ccc(C(F)(F)F)c(F)c1)C(=O)O; X16 = CS(=O)(=O)c1ccc(CC[C@H](N[*:1])C(=O)[*:2])cc1; hPhe(4-CF3) = N[C@@H](CCc1ccc(C(F)(F)F)cc1)C(=O)O; NEtPhe(4-Me) = CCN[C@@H](Cc1ccc(C)cc1)C(=O)O; NMePhe(4-Cl) = CN[C@@H](Cc1ccc(Cl)cc1)C(=O)O; NMePhe(4-Me) = CN[C@@H](Cc1ccc(C)cc1)C(=O)O; NMedβ3hAla = C[C@H](CC(=O)[*:2])N(C)[*:1]; NMeGly(cPent) = CN[C@H](C(=O)O)C1CCCC1; NMe3Pal = CN[C@@H](Cc1cccnc1)C(=O)O; NMeCha = CN[C@@H](CC1CCCCC1)C(=O)O; NMehLeu = CN[C@@H](CCC(C)C)C(=O)O; Hyp = O=C(O)[C@@H]1C[C@@H](O)CN1; NMeChg = CN[C@H](C(=O)O)C1CCCCC1; NMeI = CC[C@H](C)[C@H](NC)C(=O)O; NMeD = CN[C@@H](CC(=O)O)C(=O)O; NMeL = CN[C@@H](CC(C)C)C(=O)O; NMeV = CN[C@H](C(=O)O)C(C)C; d(β3hA) = C[C@@H](N)CC(=O)O; NMeS = CN[C@@H](CO)C(=O)O; Morpholide = C1CN(*)CCO1; NMeA = CN[C@@H](C)C(=O)O; NMeAib = CNC(C)(C)C(=O)O; Piperidide = C1CCN(*)CC1; Ac5c = NC1(C(=O)O)CCCC1; Aze = O=C(O)[C@@H]1CCN1; Aib = CC(C)(N)C(=O)O; Isopentyl = CC(C)CC*; Sar = CNCC(=O)O; Propyl = CCC*

Columns and labels:
[1] = test system: Human pancreatic cancer cell line AsPC-1 (G12D mutation Kras); test: AsPC-1 cell growth inhibition (AsPC-1 CGI); assay type: cell-based; settings: read-out: AsPC-1 cell growth inhibition, 50% growth inhibitory concentration (IC50 value); 96 hours, CellTiter-Glo, values classified in ranges
Procedure: Test compounds were serially dilated with dimethyl sulfoxide, and 200 nL was then dispensed to a U-bottom 96-well plate using Labcyte Echo. […] The cell suspension was dispensed to a. plate containing a test compound at 100 μL per well and incubated at 37° C. in a 5% carbon dioxide gas incubator. 96 hours later, 80 μL of CellTiter-Glo (Promega) was added to each well and fluorescence was measured.

[2] = target: protein-protein interaction between Kras and SOS1 (biotin-tagged human Kras loaded with GDP, His-tagged human SOS1) (Homo sapiens (Human), UniProt P01116, G12D); test: Protein-protein interaction inhibition between Kras and SOS1 (KrasG12D-SOS PPI) using AlphaScreen; assay type: biochemical; settings: AlphaScreen; biotin-tagged human Kras loaded with GDP, His-tagged human SOS1; read-out: KRAS G12D-SOS PPI IC50;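 note: kras produced in E. coli, Ni-coupled donor beads and streptavidin acceptor beads, excitation 680 nm with emission detected at 520–620 nm via singlet oxygen transfer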

| SMILES | IC50 [1] [µM] | IC50 [2] [µM] |
| --- | --- | --- |
| CC[C@H](C)[C@@H]1NC(=O)[C@H](CCC(C)C)N(C)C(=O)C[C@@H](C(=O)N(C)C)N(C)C(=O)[C@H]([C@@H](C)CC)N(C)C(=O)C2(CCCC2)NC(=O)[C@@H]2CCCN2C(=O)[C@H](CCc2ccc(C(F)(F)F)c(Cl)c2)NC(=O)CN(C)C(=O)[C@H](Cc2ccc(C)cc2)N(C)C(=O)[C@@H]2CCN2C(=O)[C@H](C)NC1=O [Compound 308] ([NMehLeu]IA[Aze][NMePhe(4-Me)][Sar][hPhe(3-Cl-4-CF3)]P[Ac5c][NMeI][NMeD]-NMe2; lactam N-11) | ≤ 0.02 | 0.00093 |
| CC[C@H](C)[C@@H]1NC(=O)[C@H](C)N(C)C(=O)C[C@@H](C)NC(=O)[C@H](CC(C)C)N(C)C(=O)C(C)(C)NC(=O)[C@H](CC(C)C)N(C)C(=O)[C@H](CCc2ccc(C(F)(F)F)cc2)NC(=O)CN(C)C(=O)[C@H](Cc2ccc(Cl)cc2)N(C)C(=O)CN(C)C(=O)CN(C)C1=O [Compound 788] (cyclo([Aib][NMeL][d(β3hA)][NMeA]I[Sar][Sar][NMePhe(4-Cl)][Sar][hPhe(4-CF3)][NMeL])) | > 0.5 | 0.013 |
| CC(C)CCOC[C@@H]1NC(=O)[C@H](CC(C)C)N(C)C(=O)C[C@@H](C(=O)N2CCCCC2)N(C)C(=O)[C@H](C(C)C)N(C)C(=O)C2(CCCC2)NC(=O)[C@@H]2CCCN2C(=O)[C@H](CCc2ccc(C(F)(F)F)c(Cl)c2)NC(=O)CN(C)C(=O)[C@H](CC2CCCCC2)N(C)C(=O)[C@@H]2CCN2C(=O)[C@H](C)N(C)C1=O [Compound 485] ([NMeL]S(Isopentyl)[NMeA][Aze][NMeCha][Sar][hPhe(3-Cl-4-CF3)]P[Ac5c][NMeV][NMeD]-Piperidide; lactam N-11) | > 0.5 | 0.16 |
| CC(C)C[C@@H]1NC(=O)C(C)(C)N(C)C(=O)[C@H](CC(C)C)NC(=O)[C@H](CCc2ccc(C(F)(F)F)c(F)c2)NC(=O)CN(C)C(=O)[C@H](Cc2ccc(Cl)cc2)N(C)C(=O)CN(C)C(=O)CN(C)C(=O)[C@H](C(C)C)NC(=O)[C@H](CC(C)C)N(C)C(=O)C[C@@H](C)N(C)C1=O [Compound 956] (cyclo(L[NMeAib]L[NMedβ3hAla][NMeL]V[Sar][Sar][NMePhe(4-Cl)][Sar][hPhe(3-F,4-CF3)])) | > 0.5 | 0.08 |
| CC[C@H](C)[C@@H]1NC(=O)[C@H](CC(C)C)N(C)C(=O)C[C@@H](C(=O)N2CCCCC2)N(C)C(=O)[C@H](C(C)C)N(C)C(=O)C2(CCCC2)NC(=O)[C@@H]2CCCN2C(=O)[C@H](CCc2ccc(C(F)(F)F)c(Cl)c2)NC(=O)CN(C)C(=O)[C@H](CO)N(C)C(=O)[C@@H]2CCN2C(=O)[C@H](C)N(C)C1=O [Compound 1721] ([NMeL]I[NMeA][Aze][NMeS][Sar][hPhe(3-Cl-4-CF3)]P[Ac5c][NMeV][NMeD]-Piperidide; lactam N-11) | > 0.5 | 0.022 |
| CC[C@H](C)[C@@H]1NC(=O)[C@H](CC(C)C)N(C)C(=O)C[C@@H](C(=O)N(C)C)N(C)C(=O)[C@H](C2CCCC2)N(C)C(=O)C2(CCCC2)NC(=O)[C@@H]2CCCN2C(=O)[C@H](CCc2ccc(C(F)(F)F)c(Cl)c2)NC(=O)CN(C)C(=O)[C@H](Cc2ccc(C)cc2)N(CC)C(=O)[C@@H]2CCN2C(=O)[C@H](C)N(C)C1=O [Compound 279] ([NMeL]I[NMeA][Aze][NEtPhe(4-Me)][Sar][hPhe(3-Cl-4-CF3)]P[Ac5c][NMeGly(cPent)][NMeD]-NMe2; lactam N-11) | ≤ 0.02 | 0.00099 |
| CC[C@H](C)[C@@H]1NC(=O)[C@H](CC(C)C)N(C)C(=O)C[C@@H](C(=O)N2CCCCC2)N(C)C(=O)[C@H](C2CCCCC2)N(C)C(=O)C2(CCCC2)NC(=O)[C@@H]2CCCN2C(=O)[C@H](CCc2ccc(S(C)(=O)=O)cc2)NC(=O)CN(C)C(=O)[C@H](CC2CCCCC2)N(C)C(=O)CN(C)C(=O)CN(C)C1=O [Compound 2058, (3S,9S,18S,21S,25S,28S,34S)-28-cyclohexyl-9-(cyclohexylmethyl)-21-isobutyl-7,10,13,16,22,26,29-heptamethyl-18-[(1S)-1-methylpropyl]-3-[2-(4-methylsulfonylphenyl)ethyl]-25-(piperidine-1-carbonyl)spiro[1,4,7,10,13,16,19,22,26,29,32-undecazabicyclo[32.3.0]heptatriacontane-31,1′-cyclopentane]-2,5,8,11,14,17,20,23,27,30,33-undecone] ([NMeL]I[Sar][Sar][NMeCha][Sar][X16]P[Ac5c][NMeChg][NMeD]-Piperidide; lactam N-11) | > 0.5 | 0.38 |
| CC[C@H](C)[C@@H]1NC(=O)[C@H](CC(C)C)N(C)C(=O)C[C@@H](C(=O)N2CCCCC2)N(C)C(=O)[C@H](CC(C)C)N(C)C(=O)C2(CCCC2)NC(=O)[C@@H]2C[C@@H](O)CN2C(=O)[C@H](CCc2ccc(C(F)(F)F)c(F)c2)NC(=O)CN(C)C(=O)[C@H](CC2CCCCC2)N(C)C(=O)CN(C)C(=O)CN(C)C1=O [Compound 875, (3S,9S,18S,21S,25S,28S,34S,36R)-9-(cyclohexylmethyl)-3-[2-[3-fluoro-4-(trifluoromethyl)phenyl]ethyl]-36-hydroxy-21,28-diisobutyl-7,10,13,16,22,26,29-heptamethyl-18-[(1S)-1-methylpropyl]-25-(piperidine-1-carbonyl)spiro[1,4,7,10,13,16,19,22,26,29,32-undecazabicyclo[32.3.0]heptatriacontane-31,1′-cyclopentane]-2,5,8,11,14,17,20,23,27,30,33-undecone] ([NMeL]I[Sar][Sar][NMeCha][Sar][hPhe(3-F,4-CF3)][Hyp][Ac5c][NMeL][NMeD]-Piperidide; lactam N-11) | > 0.5 | 0.0031 |
| CC[C@H](C)[C@@H]1NC(=O)[C@H](C)N(C)C(=O)C[C@@H](C(=O)N2CCCCC2)N(C)C(=O)[C@H](C(C)C)N(C)C(=O)C2(CCCC2)NC(=O)[C@@H]2CCCN2C(=O)[C@H](CCc2ccc(C(F)(F)F)c(Cl)c2)NC(=O)CN(C)C(=O)[C@H](CC2CCCCC2)N(C)C(=O)[C@@H]2CCN2C(=O)[C@H](C)N(C)C1=O [Compound 1562] ([NMeA]I[NMeA][Aze][NMeCha][Sar][hPhe(3-Cl-4-CF3)]P[Ac5c][NMeV][NMeD]-Piperidide; lactam N-11) | > 0.5 | 0.0048 |
| CC[C@H](C)[C@@H]1NC(=O)[C@H](CC(C)C)N(C)C(=O)C[C@@H](C(=O)N2CCCCC2)N(C)C(=O)[C@H](C(C)C)N(C)C(=O)C2(CCCC2)NC(=O)[C@@H]2CCCN2C(=O)[C@H](CCc2ccc(C(F)(F)F)c(Cl)c2)NC(=O)CN(C)C(=O)[C@H](CC2CCCCC2)N(C)C(=O)[C@@H]2CCN2C(=O)[C@@H]2CCCN2C1=O [Compound 709] ([NMeL]IP[Aze][NMeCha][Sar][hPhe(3-Cl-4-CF3)]P[Ac5c][NMeV][NMeD]-Piperidide; lactam N-11) | > 0.5 | 0.041 |
| CC[C@H](C)[C@@H]1NC(=O)[C@H](CC(C)C)N(C)C(=O)C[C@@H](C)N(C)C(=O)[C@H](CC(C)C)NC(=O)C(C)(C)N(C)C(=O)[C@H](CC(C)C)NC(=O)[C@H](CCc2ccc(C(F)(F)F)c(F)c2)NC(=O)CN(C)C(=O)[C@H](Cc2ccc(Cl)cc2)N(C)C(=O)CN(C)C(=O)CN(C)C1=O [Compound 797] (cyclo(I[Sar][Sar][NMePhe(4-Cl)][Sar][hPhe(3-F,4-CF3)]L[NMeAib]L[NMedβ3hAla][NMeL])) | > 0.5 | 0.019 |
| CC[C@H](C)[C@@H]1NC(=O)[C@H](CC(C)C)N(C)C(=O)C[C@@H](C)N(C)C(=O)[C@H](C2CCCCC2)N(C)C(=O)C2(CCCC2)NC(=O)[C@H](Cc2cccnc2)N(C)C(=O)[C@H](CCc2ccc(C(F)(F)F)c(Cl)c2)NC(=O)CN(C)C(=O)[C@H](CC2CCCCC2)N(C)C(=O)CN(C)C(=O)CN(C)C1=O [Compound 1849] (cyclo([Ac5c][NMeChg][NMedβ3hAla][NMeL]I[Sar][Sar][NMeCha][Sar][hPhe(3-Cl-4-CF3)][NMe3Pal])) | > 0.5 | 0.23 |
| CCCOC[C@H]1C(=O)N(C)CC(=O)N[C@@H](CCc2ccc(C(F)(F)F)c(Cl)c2)C(=O)N2CCC[C@H]2C(=O)NC2(CCCC2)C(=O)N(C)[C@@H]([C@@H](C)CC)C(=O)N(C)[C@H](C)CC(=O)N(C)[C@@H](CC(C)C)C(=O)N[C@@H]([C@@H](C)CC)C(=O)N(C)[C@@H](C)C(=O)N2CC[C@H]2C(=O)N1C [Compound 529] (cyclo([Ac5c][NMeI][NMedβ3hAla][NMeL]I[NMeA][Aze][NMeS](Propyl)[Sar][hPhe(3-Cl-4-CF3)]P)) | ≤ 0.02 | 0.0082 |
| CC[C@H](C)[C@@H]1NC(=O)[C@H](CC(C)C)N(C)C(=O)C[C@@H](C(=O)N2CCCCC2)N(C)C(=O)[C@H](C(C)C)N(C)C(=O)C2(CCCC2)NC(=O)[C@H](C)NC(=O)[C@H](CCc2ccc(C(F)(F)F)c(Cl)c2)NC(=O)CN(C)C(=O)[C@H](CC2CCCCC2)N(C)C(=O)CN(C)C(=O)CN(C)C1=O [Compound 156] ([NMeL]I[Sar][Sar][NMeCha][Sar][hPhe(3-Cl-4-CF3)]A[Ac5c][NMeV][NMeD]-Piperidide; lactam N-11) | > 0.5 | 0.00098 |
| CC[C@H](C)[C@@H]1NC(=O)[C@H](CC(C)C)N(C)C(=O)C[C@@H](C(=O)N(C)C)N(C)C(=O)[C@H](C2CCCC2)N(C)C(=O)C2(CCCC2)NC(=O)[C@@H]2CCCN2C(=O)[C@H](CCc2ccc(C(F)(F)F)c(F)c2)NC(=O)CN(C)C(=O)[C@H](C2CCCC2)N(C)C(=O)[C@@H]2CCN2C(=O)[C@H](C)N(C)C1=O [Compound 134] ([NMeL]I[NMeA][Aze][NMeGly(cPent)][Sar][hPhe(3-F,4-CF3)]P[Ac5c][NMeGly(cPent)][NMeD]-NMe2; lactam N-11) | ≤ 0.02 | 0.00061 |
| CCO[C@@H]1C[C@H]2C(=O)NC3(CCCC3)C(=O)N(C)[C@@H](C3CCCCC3)C(=O)N(C)[C@H](C(=O)N3CCOCC3)CC(=O)N(C)[C@@H](CC(C)C)C(=O)N[C@@H]([C@@H](C)CC)C(=O)N(C)CC(=O)N(C)CC(=O)N(C)[C@@H](CC3CCCCC3)C(=O)N(C)CC(=O)N[C@@H](CCc3cc(F)c(C(F)(F)F)c(F)c3)C(=O)N2C1 [Compound 1290] ([NMeL]I[Sar][Sar][NMeCha][Sar][hPhe(3,5-F2-4-CF3)][Hyp](Et)[Ac5c][NMeChg][NMeD]-Morpholide; lactam N-11) | ≤ 0.02 | 0.00063 |
